A short description of this series: pH in water of pH regulators before and after heat treatment. In kind it is physicochemical. The conditions noted are these: for pH in water after heat treatment: after heat treatment at 150° C. for 15 min.

The text below walks through data of patent US20240299304A1, “A METHOD FOR THE PRODUCTION OF GASTRORETENTIVE COMPACT MATRICES FOR THE CONTROLLED RELEASE OF ACTIVE SUBSTANCES AND COMPACT MATRICES THUS OBTAINED” (UNIVERSITA DEGLI STUDI DI GENOVA, priority 2021, published 2024).

As to `O=C([O-])[O-].[Mg+2]` [MgCO3], the “pH in water after heat treatment” value came to 7 and the “pH in water before heat treatment” value was determined as 6.

In the case of `O=C([O-])[O-].[Na+].[Na+]` [Na2CO3, sodium carbonate], the “pH in water after heat treatment” value turned out to be 10 and the “pH in water before heat treatment” value was determined as 10.

In the case of `O=P([O-])([O-])O.[Na+].[Na+]` [Na2HPO4 2H2O, disodium hydrogen phosphate], the “pH in water after heat treatment” value is on record as 6 and the “pH in water before heat treatment” value is listed as 6.

For the compound `O.O.O.O.O.O.O.O.O.O.O.O.O=P([O-])([O-])[O-].[Na+].[Na+].[Na+]` [Na3PO4 12H2O], the “pH in water after heat treatment” value is recorded as 10 and the “pH in water before heat treatment” value is recorded as 10.

Take `O=C([O-])O.[Na+]` [NaHCO3, sodium bicarbonate]: the “pH in water after heat treatment” value came out at 10 and the “pH in water before heat treatment” value amounted to 7.
